# Assay results reported in patent US8445207B2, “Genes based on thalidomide, valproic acid and methotrexate treatment for screening of drug inducing teratogenicity and screening method using thereof” (priority 2009, dated 2013).
# How the values were obtained:
# [1] = tested on: JEG-3 (human placental choriocarcinoma cell line); assay: Oligo microarray gene expression in drug-treated JEG-3 (Cy5 treated / Cy3 control); assay type: cell-based
# Procedure: Thalidomide, valproic acid, and methotrexate were treated to human placental choriocarcinoma cell line at the concentrations determined above (Inhibition concentration: the concentration that can kill approximately 30% of the total cells, that is the concentration of 70% viability, IC30). mRNA was extracted from the drug treated cell line, followed by synthesis of cDNA which was labeled with Cy5. The non-treated control was labeled with Cy3. The fluorescence labeled cDNA was hybridized with 41K (thalidomide), 44K (valproic acid, methotrexate) human whole genome oligomicroarray chips (Agilent, USA), followed by fluorescent image scanning to analyze gene expression patterns (see FIG. 4). Volcano Plot of each substance was also attached. Y axis indicates probability (generally converted by −log 10). X axis indicates differential expression, which is presented by log-ratio.
# Total RNA was separated from the treated cell by using trizol reagent (Invitrogen Life Technologies, USA) according to the manufacture's instructions, followed by purification using RNeasy mini kit (Qiagen, USA). Genomic DNA was eliminated during RNA purification using RNase-free DNase set (Qiagen, USA).
# 30 μg of the total RNA obtained above and 2 μg (1 μg/μl) of oligo (dT) primer were mixed, followed by reaction at 65° C. for 10 minutes. Annealing was performed in ice right after the reaction. Reagents were prepared as shown in Table 1 for reverse transcription of the annealed RNA.
# The total RNA separated from the control group JEG-3 cells was labeled with Cy3-dUTP (green) and the total RNA separated from the experiment group JEG-3 cells treated with thalidomide, valproic acid and methotrexate was labeled with Cy5-dUTP (red). At this time, the two samples were mixed and purified by Microcon YM-30 column (Millipore, USA).
# Hybridization and washing were performed by the manufacturer's (GenoCheck, Korea) instructions. Particularly, hybridization was performed in a 62° C. oven for 12 hours. As a DNA microarray chip, 44 k whole human genome oligo microarray (Agilent, USA) was used. After washing (2 minutes with 2×SSC/0.1% SDS, three minutes with 1×SSC, 2 minutes with 0.2×SSC), the slide was dried by centrifugation at 800 rpm for 3 minutes.
# Hybridization image on the slide was scanned with Genepix 4000B (Axon Instruments, USA). Fluorescence image of the chip on which non-hybridized genes had been washed out was obtained by using laser fluorescence scanner. Green fluorescence image indicates the activity of gene specifically expressed in the control group and red fluorescence image indicates the activity of gene specifically expressed in the experimental group. […] Scanned image was analyzed by using GenePix 4.1 software (Axon Instruments, USA) to calculate gene expression rate.
# [2] = tested on: JEG-3 (human placental choriocarcinoma cell line); assay: Real-time RT-PCR quantification of gene expression in drug-treated JEG-3; assay type: cell-based
# Procedure: My IQ Real-Time PCR (Bio-Rad, USA) was performed to quantify the expressions of those genes.
# Particularly, cDNA was synthesized using oligo dT primer and Superscript kit (Omniscipt™ kit, Qiagen, Co., USA) by reverse transcription. 0.2 μl of the cDNA, 3.8 μl of water, 0.5 μg of a sense primer, 0.5 μg of an antisense primer, and […] of SYBR Green I supermix (Bio-Rad, USA) were mixed, which was placed in a PCR tube, followed by real-time RT-PCR in My IQ real-time PCR machine as follows: Step 1: 95°, 3 minutes; Step 2 (45 cycles): Step 2-1: 95°, 10 seconds; Step 2-2: 55-65° 45 seconds; Step 3: 95°, 1 minute; Step 4: 55°, 1 minute; Step 5 (80 cycles): 55°, 10 seconds. SYBR green I (Bio-Rad, USA) staining was performed to quantify the PCR product. SYBR I staining is the staining method using double stranded DNA binding. So, the more double stranded DNA is generated during PCR, the stronger the fluorescence intensity becomes. First, target gene and endogenous control (GAPDH) primers were added to SYBR green master mix, followed by PCR. Then, primer optimization was performed to determine a proper concentration. Synthesized cDNA and each primer were mixed (Table 4), to which SYBR master mix was added, followed by PCR.
# [3] = out of 21797 (thalidomide), 21921 (valproic acid), 24006 (methotrexate) genes
# [4] = treated at IC30, up-regulated gene, (k) common gene which has no function
smiles,measurement,setting,value
"O=C1CCC(N2C(=O)c3ccccc3C2=O)C(=O)N1 (stereo not shown) [THA, thalidomide]","cDNA microarray (Cy3/Cy5 ratio), KIAA0310",[1]; GenBank AB002308,1.94
same,"cDNA microarray (Cy3/Cy5 ratio), ATP10B",[1]; GenBank AB018258,3.11
same,"cDNA microarray (Cy3/Cy5 ratio), TTF2",[1]; GenBank AB209845,1.58
same,"cDNA microarray (Cy3/Cy5 ratio), TncRNA",[1]; GenBank AF001893,1.5
same,"cDNA microarray (Cy3/Cy5 ratio), C4orf19",[1]; GenBank AK001879,1.51
same,"cDNA microarray (Cy3/Cy5 ratio), CYP19A1",[1]; GenBank AK023571,2.03
same,"cDNA microarray (Cy3/Cy5 ratio), SLC40A1",[1]; GenBank AK023574,1.5
same,"cDNA microarray (Cy3/Cy5 ratio), ABTB2",[1]; GenBank AK095632,1.78
same,"cDNA microarray (Cy3/Cy5 ratio), TUBB3",[1]; GenBank AK122757,2.03
same,"cDNA microarray (Cy3/Cy5 ratio), MGC27016",[1]; GenBank AK125877,1.51
same,"cDNA microarray (Cy3/Cy5 ratio), GLCCI1",[1]; GenBank AK126731,1.56
same,"cDNA microarray (Cy3/Cy5 ratio), TFCP2L4",[1]; GenBank BC036890,1.61
same,"cDNA microarray (Cy3/Cy5 ratio), RGS2",[1]; GenBank BC042755,1.78
same,"cDNA microarray (Cy3/Cy5 ratio), SIAT7A",[1]; GenBank BC063830,2.54
same,"cDNA microarray (Cy3/Cy5 ratio), B7-H4",[1]; GenBank BX648021,0.52
same,"cDNA microarray (Cy3/Cy5 ratio), COBLL1",[1]; GenBank BX649112,1.85
same,"cDNA microarray (Cy3/Cy5 ratio), CGA",[1]; GenBank NM_000735,3.04
same,"cDNA microarray (Cy3/Cy5 ratio), PARP1",[1]; GenBank NM_001618,0.66
same,"cDNA microarray (Cy3/Cy5 ratio), SERPINB9",[1]; GenBank NM_004155,1.73
same,"cDNA microarray (Cy3/Cy5 ratio), ST8SIA4",[1]; GenBank NM_005668,1.69
same,"cDNA microarray (Cy5 treated / Cy3 control ratio), ABL1",[1]; GenBank NM_007313,0.65
same,"cDNA microarray (Cy3/Cy5 ratio), GRLF1",[1]; GenBank NM_024342,0.55
same,"cDNA microarray (Cy3/Cy5 ratio), LGP1",[1]; GenBank NM_032484,0.58
same,"cDNA microarray (Cy3/Cy5 ratio), NCOA3",[1]; GenBank NM_181659,1.64
same,"cDNA microarray (Cy3/Cy5 ratio), SR140",[1]; GenBank XM_031553,0.5
same,"cDNA microarray (Cy3/Cy5 ratio), SLC7A8",[1]; GenBank Y18483,1.71
same,"Ratio of intermediate value, IGF2","[1]; Genbank AK074614, drug at IC30",0.64
same,"Ratio of intermediate value, GRLF1","[1]; Genbank BI494022, NM_024342, drug at IC30",0.55
same,"Ratio of intermediate value, B7-H4","[1]; Genbank BX648021, drug at IC30",0.52
same,"Ratio of intermediate value, PARP1","[1]; Genbank NM_001618, drug at IC30",0.66
same,"Ratio of intermediate value, NRP1","[1]; Genbank NM_003873, drug at IC30",0.62
same,"Ratio of intermediate value, HAND1","[1]; Genbank NM_004821, drug at IC30",0.61
same,"Ratio of intermediate value, ABL1","[1]; Genbank NM_007313, drug at IC30",0.65
same,"Ratio of intermediate value, LGP1","[1]; Genbank NM_032484, drug at IC30",0.58
same,"Ratio of intermediate value, SR140","[1]; Genbank XM_031553, drug at IC30",0.50
same,genes down-regulated (ratio of intermediate value less than 0.666),"[1]; JEG-3, drug at IC30, 48 hours",0.34%
same,genes up-regulated (ratio of intermediate value more than 1.5),"[1]; JEG-3, drug at IC30, 48 hours",0.95%
same,number of genes down-regulated,[1]; [3],74
same,number of genes up-regulated,[1]; [3],208
same,"Ratio of intermediate value, gene ATP10B (AB018258, ATPase, Class V, type 10B)",[1]; [4],3.11
same,"Ratio of intermediate value, gene BQ186674 (cDNA clone UI-E-EJ1-ajr-f-10-0-UI, Hypothetical gene supported by AF086204)",[1]; [4],1.60
same,"Ratio of intermediate value, gene BX111592 (Transcribed locus, moderately similar to XP_066443.6 PREDICTED: similar to paraneoplastic antigen like 6A)",[1]; [4],2.17
same,"Ratio of intermediate value, gene CGA (NM_000735, Glycoprotein hormones, alpha polypeptide)",[1]; [4],3.04
same,"Ratio of intermediate value, gene COBLL1 (BX649112, COBL-like 1)",[1]; [4],1.85
same,"Ratio of intermediate value, gene CYP19A1 (AK023571, Cytochrome P450, family 19, subfamily A, polypeptide 1)",[1]; [4],2.03
same,"Ratio of intermediate value, gene FLJ11017 (AK001879, Hypothetical protein FLJ11017)",[1]; [4],1.51
same,"Ratio of intermediate value, gene GLCCI1 (AK126731, Glucocorticoid induced transcript 1)",[1]; [4],1.56
same,"Ratio of intermediate value, gene KIAA0310 (AB002308, KIAA0310)",[1]; [4],1.94
same,"Ratio of intermediate value, gene MGC27016 (AK125877, Hypothetical protein MGC27016)",[1]; [4],1.51
same,"Ratio of intermediate value, gene NCOA3 (NM_181659, Nuclear receptor coactivator 3)",[1]; [4],1.64
same,"Ratio of intermediate value, gene RGS2 (BC042755, Regulator of G-protein signalling 2, 24 kDa)",[1]; [4],1.78
same,"Ratio of intermediate value, gene SIAT7A (BC063830, ST6 (alpha-N-acetyl-neuraminyl-2,3-beta-galactosyl-1,3)-N-acetylgalactosaminide alpha-2,6-sialyltransferase 1)",[1]; [4],2.54
same,"Ratio of intermediate value, gene SIAT8D (NM_005668, ST8 alpha-N-acetyl-neuraminide alpha-2,8-sialyltransferase 4)",[1]; [4],1.69
same,"Ratio of intermediate value, gene SLC7A8 (Y18483, Solute carrier family 7 (cationic amino acid transporter, y+ system), member 8)",[1]; [4],1.71
same,"Ratio of intermediate value, gene SLC40A1 (AK023574, Solute carrier family 40 (iron-regulated transporter), member 1)",[1]; [4],1.50
same,"Ratio of intermediate value, gene TFCP2L4 (BC036890, Grainyhead-like 3 (Drosophila))",[1]; [4],1.61
same,"Ratio of intermediate value, gene TTF2 (AB209845, Transcription termination factor, RNA polymerase II)",[1]; [4],1.58
same,"Ratio of intermediate value, gene TUBB3 (AK122757, Tubulin, beta 3)",[1]; [4],2.03
same,"Ratio of intermediate value, gene TncRNA (AF001893, Trophoblast-derived noncoding RNA)",[1]; [4],1.50
same,"Real time PCR (Relative ratio), KIAA0310",[2]; GenBank AB002308,4.78
same,"Real time PCR (Relative ratio), ATP10B",[2]; GenBank AB018258,4.7689
same,"Real time PCR (Relative ratio), TTF2",[2]; GenBank AB209845,1.6625
same,"Real time PCR (Relative ratio), TncRNA",[2]; GenBank AF001893,5.9587
same,"Real time PCR (Relative ratio), C4orf19",[2]; GenBank AK001879,1.6143
same,"Real time PCR (Relative ratio), CYP19A1",[2]; GenBank AK023571,2.6408
same,"Real time PCR (Relative ratio), SLC40A1",[2]; GenBank AK023574,2.1558
same,"Real time PCR (Relative ratio), ABTB2",[2]; GenBank AK095632,1.4359
same,"Real time PCR (Relative ratio), TUBB3",[2]; GenBank AK122757,2.8114
same,"Real time PCR (Relative ratio), MGC27016",[2]; GenBank AK125877,2.3438
same,"Real time PCR (Relative ratio), GLCCI1",[2]; GenBank AK126731,1.5509
same,"Real time PCR (Relative ratio), TFCP2L4",[2]; GenBank BC036890,2.5111
same,"Real time PCR (Relative ratio), RGS2",[2]; GenBank BC042755,3.4255
same,"Real time PCR (Relative ratio), SIAT7A",[2]; GenBank BC063830,2.5019
same,"Real time PCR (Relative ratio), B7-H4",[2]; GenBank BX648021,0.5
same,"Real time PCR (Relative ratio), COBLL1",[2]; GenBank BX649112,1.5201
same,"Real time PCR (Relative ratio), CGA",[2]; GenBank NM_000735,2.9963
same,"Real time PCR (Relative ratio), PARP1",[2]; GenBank NM_001618,0.805
same,"Real time PCR (Relative ratio), SERPINB9",[2]; GenBank NM_004155,2.2852
same,"Real time PCR (Relative ratio), ST8SIA4",[2]; GenBank NM_005668,1.8635
same,"Real time PCR (Relative ratio), ABL1",[2]; GenBank NM_007313,0.6781
same,"Real time PCR (Relative ratio), GRLF1",[2]; GenBank NM_024342,0.689
same,"Real time PCR (Relative ratio), LGP1",[2]; GenBank NM_032484,0.4867
same,"Real time PCR (Relative ratio), NCOA3",[2]; GenBank NM_181659,2.9283
same,"Real time PCR (Relative ratio), SR140",[2]; GenBank XM_031553,0.6423
same,"Real time PCR (Relative ratio), SLC7A8",[2]; GenBank Y18483,1.6327
